Counter-ions that a name gives are not always drawn.
Experiments:
SMYD3 [1] = molecular target: T1, SMYD3 (Homo sapiens (Human), UniProt Q9H7B4); assay: SMYD3 cell assay (Trimethyl-MEKK2 In-Cell Western in 293T/17 cells); format: cell-based
Description: Trimethyl-MEKK2-in-Cell Western Assay
MEM/Glutamax medium, Optimem Reduced Serum medium, penicillin-streptomycin, 0.05% trypsin and 1×D-PBS were purchased from Life Technologies, Grand Island, N.Y., USA. PBS-10× was purchased from Ambion, Life Technologies, Grand Island, N.Y., USA. PBS with Tween 20 (PBST (10×)) was purchased from KPL, Gaithersburg, Md., USA. Tet System FBS-approved FBS US Source was purchased from Clontech, Mountain View, Calif., USA. Odyssey blocking buffer, 800CW goat anti-rabbit IgG (H+L) antibody, 680CW Goat anti-mouse IgG (H+L) and Licor Odyssey infrared scanner were purchased from Licor Biosciences, Lincoln, Nebr., USA. Tri-methyl-Lysine [A260]-MEKK2 antibody, MEKK2 and SMYD3 plasmids were made at Epizyme. Anti-flag monoclonal mouse antibody was purchased from Sigma, St. Louis, Mo., USA. Methanol was purchased from VWR, Franklin, Mass., USA. 10% Tween 20 was purchased from KPL, Inc., Gaithersburg, Md., USA. Fugene was purchased from Promega, Madison, Wis., USA. The Biotek ELx405 was purchased from BioTek, Winooski, Vt., USA. The multidrop combi was purchased from Thermo Scientific, Waltham, Mass., USA.
Cell Treatment, in Cell Western (ICW) for Detection of Trimethyl-Lysine-MEKK2 and MEKK2.
Plasmids were prepared for delivery to cells by first mixing 1350 μL Opti-MEM with Fugene (81 μL) in a sterile Eppendorf and incubated for five minutes at room temperature (RT). […] Entire volume of Opti-MEM/Fugene mixture was then added to a microfuge tube containing DNA plasmid, mixed and then incubated×15 minutes at RT. […] Medium was then removed, and cells were washed once with PBS in the flask. Trypsin 0.05% (3 mL) was added and cells incubated for three minutes. Room temperature MEM+10% Tet system FBS was added and cells were mixed gently, and counted using the Vi-cell. Cells were seeded at 100,000 cells/mL in 50 μL MEM/10% Tet FBS/Pen/Strep to a 384 well black/clear poly-D-lysine coated plate containing test agent diluted in DMSO. The final top concentration of test compound was 40 μM. […] Plates were incubated×30 minutes at RT in low-airflow area, followed by incubation at 37° C. under 5% CO2 for 24 hours. Medium was aspirated from all wells of assay plates prior to fixation and permeabilization with ice cold (−20° C.) methanol (90 μL/well) for ten minutes. Plates were rinsed with PBS three times on BioTek ELx405. PBS was removed with a final aspiration, and Odyssey blocking buffer (50 μL/well) was added to each well and incubated for one hour at RT. Primary antibody solution was prepared (anti-trimethyl-MEKK2 at 1:600 dilution plus mouse anti-flag antibody at 1:10,000 dilution in diluent (Odyssey Blocking buffer+0.1% Tween 20)) and 20 μL per well was dispensed using the Multidrop Combi. Assay plates were then sealed with foil, and incubated overnight at 4° C. Plates were washed five times with PBS-Tween (1×) on Biotek ELx405 and blotted on paper towel to remove excess reagent.
First, the ratio for each well was determined by:
Each plate included fourteen control wells of DMSO only treatment (Minimum Inhibition) as well as fourteen control wells for maximum inhibition (Background). The average of the ratio values for each control type was calculated and used to determine the percent inhibition for each test well in the plate. Reference compound was serially diluted two-fold in DMSO for a total of nine test concentrations, beginning at 40 μM.
Percent inhibition was calculated (below).
Non-linear regression curves were generated to calculate the IC50 and dose-response relationship using triplicate wells per concentration of compound.

SMYD3 [2] = molecular target: T1, SMYD3; assay: SMYD3 biochemical assay (SPA, 3H-SAM methylation of MEKK2 protein substrate)
How it was run: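 Enzyme: untagged full-length human SMYD3 from E. coli; substrate GST-tagged MEKK2 from insect cells. Buffer 25 mM Tris-Cl pH 8.0, 1 mM TCEP, 0.005% BSG/Tween 20. 30 min compound–enzyme preincubation at RT; 3H-SAM/MEKK2 start; stop with cold SAM (100 uM final); SPA readout in cpm.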

[3] = read-out: SMYD3 Cell IC50 (μM)*
[4] = read-out: SMYD3 Biochem IC50 (μM)*
[5] = 293T/17 cells, read-out: SMYD3 Cell IC50 (μM)*
[6] = Table 2A, read-out: SMYD3 Cell IC50
[7] = Table 2A, read-out: SMYD3 Biochem IC50

T1 sequence (Q9H7B4 whole entry): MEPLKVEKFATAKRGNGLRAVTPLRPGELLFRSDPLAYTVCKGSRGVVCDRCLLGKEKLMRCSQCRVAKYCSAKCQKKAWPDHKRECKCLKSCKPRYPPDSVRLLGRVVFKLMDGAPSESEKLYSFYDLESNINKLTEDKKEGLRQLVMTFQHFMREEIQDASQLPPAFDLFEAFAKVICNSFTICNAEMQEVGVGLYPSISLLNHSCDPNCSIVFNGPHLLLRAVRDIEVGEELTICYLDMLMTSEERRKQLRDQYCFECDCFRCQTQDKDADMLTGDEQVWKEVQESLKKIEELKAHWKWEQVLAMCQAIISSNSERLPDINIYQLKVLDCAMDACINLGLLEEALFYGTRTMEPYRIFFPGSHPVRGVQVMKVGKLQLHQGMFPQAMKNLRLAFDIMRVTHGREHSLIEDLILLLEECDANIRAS

Row | SMILES | IC50 (SMYD3 [2]; [4]) [µM] | IC50 (SMYD3 [1]; [6]) [µM] | IC50 (SMYD3 [2]; [7]) [µM] | further results
1 | NCCCS(=O)(=O)N1C2CCCC1CC(NC(=O)c1cc(C3CC3)on1)C2 (stereo not shown) [Cpd. No. 181, N-[9-[(3-aminopropane)sulfonyl]-9-azabicyclo[3.3.1]nonan-3-yl]-5-cyclopropyl-1,2-oxazole-3-carboxamide hydrochloride salt] | 0.0927 | – | – | IC50 (SMYD3 [1]; [3]): 0.566 µM
2 | C[C@H]1C[C@@H](NC(=O)c2cc(C3CC3)on2)CCN1S(=O)(=O)N1CCN(C)CC1 [Cpd. No. 279, 5-cyclopropyl-N-[(2S,4S)-2-methyl-1-(4-methylpiperazine-1-sulfonyl)piperidin-4-yl]-1,2-oxazole-3-carboxamide] | 0.0815 | – | – | IC50 (SMYD3 [1]; [5]): 0.266 µM
3 | C[C@H]1CN(S(=O)(=O)CCCN)CC[C@H]1NC(=O)c1cc(C2CC2)on1 [Cpd. No. 386, N-((3S,4R)-1-(3-aminopropylsulfonyl)-3-methylpiperidin-4-yl)-5-cyclopropylisoxazole-3-carboxamide] | 0.0282 | – | – | IC50 (SMYD3 [1]): 0.34 µM
4 | C[C@@H]1CN(C(=O)[C@H]2CC[C@H](N)CC2)[C@H](C)C[C@@H]1NC(=O)c1cc(C2CC2)on1 [Cpd. No. 420, N-((2R,4S,5R)-1-((1r,4R)-4-aminocyclohexanecarbonyl)-2,5-dimethylpiperidin-4-yl)-5-cyclopropylisoxazole-3-carboxamide] | 0.0113 | – | – | IC50 (SMYD3 [1]; [5]): 0.205 µM
5 | C[C@H]1C[C@@H](NC(=O)c2cc(C3CC3)on2)CCN1S(=O)(=O)c1ccc(NCCN2CCOCC2)nc1 [Cpd. No. 458, 5-cyclopropyl-N-((2S,4S)-2-methyl-1-(6-(2-morpholinoethylamino)pyridin-3-ylsulfonyl)piperidin-4-yl)isoxazole-3-carboxamide dihydrochloride] | 0.132 | – | – | IC50 (SMYD3 [1]; [5]): 0.581 µM
6 | NCCCS(=O)(=O)N1[C@@H]2CC[C@H]1C[C@@H](NC(=O)c1cc(C3CC3)on1)C2 [Cpd. No. 485, N-((1S,3r,5R)-8-(3-aminopropylsulfonyl)-8-aza-bicyclo[3.2.1]octan-3-yl)-5-cyclopropylisoxazole-3-carboxamide] | 0.00507 | – | – | IC50 (SMYD3 [1]; [5]): 0.129 µM
7 | C[C@H]1C[C@@H](NC(=O)c2cc(C3CC3)on2)CCN1S(=O)(=O)CCCNCc1ccccc1 [Cpd. No. 500, N-((2S,4S)-1-(3-(benzylamino)propylsulfonyl)-2-methylpiperidin-4-yl)-5-cyclopropylisoxazole-3-carboxamide] | – | – | – | IC50 (SMYD3 [1]; Table 1A, IC50 values are an average of n = 1 to n = 50, read-out: SMYD3 Cell IC50): 0.106 µM; IC50 (SMYD3 [2]; Table 1A, IC50 values are an average of n = 1 to n = 50, read-out: SMYD3 Biochem IC50): 0.00813 µM
8 | O=C(N[C@H]1C[C@H]2CC[C@@H](C1)N2S(=O)(=O)CC1CCN(CCCC(F)(F)F)CC1)c1cc(C2CC2)on1 [Cpd. No. 528, 5-cyclopropyl-N-[(1R,3r,5S)-8-([[1-(4,4,4-trifluorobutyl)piperidin-4-yl]methane]sulfonyl)-8-azabicyclo[3.2.1]octan-3-yl]-1,2-oxazole-3-carboxamide] | – | 0.0231 | 0.0006 | –
9 | C[C@H]1C[C@@H](NC(=O)c2cc(C3CC3)on2)CCN1S(=O)(=O)N1CCC(N)CC1 [Cpd. No. 529, N-((2S,4S)-1-(4-aminopiperidin-1-ylsulfonyl)-2-methylpiperidin-4-yl)-5-cyclopropylisoxazole-3-carboxamide trifluoroacetic acid] | – | 0.0152 | 0.0008 | –
10 | NC1CCN(S(=O)(=O)N2[C@@H]3CC[C@H]2C[C@@H](NC(=O)c2cc(C4CC4)on2)C3)CC1 [Cpd. No. 532, N-((1R,3r,5S)-8-(4-aminopiperidin-1-ylsulfonyl)-8-aza-bicyclo[3.2.1]octan-3-yl)-5-cyclopropylisoxazole-3-carboxamide hydrochloride] | – | 0.0214 | 0.0009 | –
11 | C[C@H]1C[C@@H](NC(=O)c2cc(C3CC3)on2)CCN1S(=O)(=O)c1ccc(C(C)(C)N)cc1 [Cpd. No. 541, N-((2S,4S)-1-(4-(2-aminopropan-2-yl)phenylsulfonyl)-2-methylpiperidin-4-yl)-5-cyclopropylisoxazole-3-carboxamide] | – | 0.0259 | 0.0014 | –
12 | O=C(N[C@H]1C[C@H]2CC[C@@H](C1)N2S(=O)(=O)CC1CCNCC1)c1cc(C2CC2)on1 [Cpd. No. 543, 5-cyclopropyl-N-((1R,3r,5S)-8-(piperidin-4-ylmethylsulfonyl)-8-aza-bicyclo [3.2.1]octan-3-yl) isoxazole-3-carboxamide] | – | 0.0445 | 0.0018 | –
13 | O=C(N[C@H]1C[C@H]2CC[C@@H](C1)N2S(=O)(=O)N1CC2(CCNCC2)C1)c1cc(C2CC2)on1 [Cpd. No. 559, N-((1R,3r,5S)-8-(2,7-diazaspiro[3.5]nonan-2-ylsulfonyl)-8-azabicyclo[3.2.1]octan-3-yl)-5-cyclopropylisoxazole-3-carboxamide 2,2,2-trifluoroacetate] | – | 0.0319 | 0.0047 | –
14 | CCc1cc(C(=O)N[C@H]2C[C@H]3CC[C@@H](C2)N3S(=O)(=O)CC2CCNCC2)no1 [Cpd. No. 562, 5-ethyl-N-((1R,3r,5S)-8-(piperidin-4-ylmethylsulfonyl)-8-aza-bicyclo[3.2.1]octan-3-yl)isoxazole-3-carboxamide] | – | 0.0615 | 0.0052 | –
15 | CN1CCC(CS(=O)(=O)N2[C@@H]3CC[C@H]2C[C@@H](NC(=O)c2cc(C4CC4)on2)C3)CC1 [Cpd. No. 770, 5-cyclopropyl-N-((1S,3r,5R)-8-((l-methylpiperidin-4-yl)methylsulfonyl)-8-aza-bicyclo[3.2.1]octan-3-yl)isoxazole-3-carboxamide] | – | – | – | IC50 (SMYD3 [1]; read-out: SMYD3 Cell IC50*): 0.0192 µM; IC50 (SMYD3 [2]; read-out: SMYD3 Biochem IC50*): 0.00088 µM

More lines, main results first:

Row | IC50 (SMYD3 [2]; [4]) [µM] | SMILES | IC50 (SMYD3 [1]; [6]) [µM] | IC50 (SMYD3 [2]; [7]) [µM] | further results
16 | 0.00957 | CC(C)c1cc(C[C@@H](CN)C(=O)N2CCC(NC(=O)c3cc(C4CC4)on3)CC2)ccc1O [Cpd. No. 121, N-[1-[(2S)-3-amino-2-[[4-hydroxy-3-(propan-2-yl)phenyl]methyl]propanoyl]piperidin-4-yl]-5-cyclopropyl-1,2-oxazole-3-carboxamide hydrochloride salt] | – | – | IC50 (SMYD3 [1]; [3]): 0.68 µM
17 | 0.0225 | O=C(N[C@H]1CCN(C(=O)CC2CCNCC2)[C@@H](Cc2ccccc2)C1)c1cc(C2CC2)on1 [Cpd. No. 348, N-((2S,4S)-2-benzyl-1-(2-(piperidin-4-yl)acetyl)piperidin-4-yl)-5-cyclopropylisoxazole-3-carboxamide hydrochloride] | – | – | IC50 (SMYD3 [1]; [5]): 0.838 µM
18 | 0.116 | N[C@@H](Cc1ccc(O)c(I)c1)C(=O)N1CCC(NC(=O)c2cc(C3CC3)on2)CC1 [compound 5, (S)-N-(1-(2-amino-3-(4-hydroxy-3-iodophenyl)propanoyl)piperidin-4-yl)-5-cyclopropylisoxazole-3-carboxamide] | – | – | IC50 (SMYD3 [1]; [3]): 0.809 µM
19 | 0.319 | NC[C@@H](Cc1ccccc1)C(=O)N1CCC(NC(=O)c2cc(C3CC3)on2)CC1 [compound 10, (R)-N-(1-(3-amino-2-benzylpropanoyl)piperidin-4-yl)-5-cyclopropylisoxazole-3-carboxamide] | – | – | IC50 (SMYD3 [1]; [3]): 1.82 µM
20 | 0.0423 | NC[C@H](Cc1ccc(O)c(I)c1)C(=O)N1CCC(NC(=O)c2cc(C3CC3)on2)CC1 [compound 29, (S)-N-(1-(3-amino-2-(4-hydroxy-3-iodobenzyl)propanoyl)piperidin-4-yl)-5-cyclopropylisoxazole-3-carboxamide] | – | – | IC50 (SMYD3 [1]; [3]): 1.1 µM

Reference: patent publication US10577363B2, “Substituted piperidine compounds” (EPIZYME, INC., priority 2014, dated 2020)
